The test system of experiment [1] is PDL-1 protein. In words: Expression of PDL-1 protein by Western Blotting, 1×M cell line. Type of experiment: cell-based. The settings on record: 1×M cell line (glioblastoma stem cells), various concentrations of Z-BP, 24 hours, actin internal control. On the procedure: (§1) The RG2 cell line (rat malignant glioma cells), […] cell line (glioblastoma stem cells), Paca2 cell line (human pancreatic cancer cells), […] cell line (human non-small-cell lung cancer cells), or B16 cell line (mouse melanocytoma cells) were independently treated with various concentrations of Z-BP for 24 hours. Then, the proteins in the cells were extracted and the expressions of PDL-1 protein in the cancer cells treated with Z-BP were detected by Western Blotting. In addition, the expression of actin was detected and used as the internal control.

For experiment [2], the system named is PDL-1 protein. Description: Expression of PDL-1 protein by Western Blotting, B16 cell line. Type of experiment: cell-based. The settings on record: B16 cell line (mouse melanocytoma cells), various concentrations of Z-BP, 24 hours, actin internal control. On the procedure:
as §1

Experiment [3] deals with PDL-1 protein. In words: Expression of PDL-1 protein by Western Blotting, RG2 cell line. Type of experiment: cell-based. To be noted: RG2 cell line (rat malignant glioma cells), various concentrations of Z-BP, 24 hours, actin internal control. On the procedure: as §1
The test system of experiment [4] is PDL-1 protein. Description: Expression of PDL-1 protein by Western Blotting, H1650 cell line. To be noted: H1650 cell line (human non-small-cell lung cancer cells), various concentrations of Z-BP, 24 hours, actin internal control. Type of experiment: cell-based. On the procedure:
as §1

Experiment [5] concerns PDL-1 protein. Description: Expression of PDL-1 protein by Western Blotting, Paca2 cell line. Type of experiment: cell-based. The settings on record: Paca2 cell line (human pancreatic cancer cells), various concentrations of Z-BP, 24 hours, actin internal control. On the procedure: as §1
The test system of experiment [6] is stage three or four melanoma. To be noted: patients with stage three or four melanoma, Ipilimumab alone; cited from earlier work.

With `CCC/C=C1\OC(=O)c2ccccc21` [Z-BP, Z-butylidenephthalide], the “expression of PDL-1 protein” value in the experiment on PDL-1 protein [1], with PDL-1 protein [2], in the experiment on PDL-1 protein [3], in the experiment on PDL-1 protein [4] and in the experiment on PDL-1 protein [5] was “significantly decreased” each time.

For the compound Ipilimumab, the “overall survival rate increased” value in experiment [6] is 10.1 months.

The values above are taken from US10688128B2, “Use of Z-butylidenephthalide in activating autoimmune system” (EVERFRONT BIOTECH INC., priority 2016, dated 2020).
